As a reminder, the EC50 is the concentration needed to bring the measured effect to its halfway point.

The results in this text go back to patent publication US20180110824A1, “Macrocyclic Modulators of the Ghrelin Receptor” (Ocera Therapeutics, Inc., priority 2016, published 2018).

For assay [1], the system named is rat model of post-operative ileus (POI). The experiment in a line: Gastric emptying and intestinal transit in rat model of postoperative ileus. It is filed as in vivo. From the text:
This clinically relevant model for POI is adapted from that of […].; Simmons, R. L.; Bauer, A. J. Surgical manipulation of the gut elicits an intestinal muscularis inflammatory response resulting in postsurgical ileus. Ann. Surg. 1998, 228, 652-663.) Other known models can also be used to study the effect of compounds of the invention. […] Rat, Sprague-Dawley, male, 300 g. • 2. Fasted O/N prior to study. • 1. Isofluorane anaesthesia under sterile conditions. • 2. Midline abdominal incision. • 3. Intestines and caecum were eviscerated and kept moist with saline. • 4. the intestines and caecum were manipulated along its entire length with moist cotton applicators analogous to the 'running of the bowel' in the clinical setting. This procedure was timed to last for 10 min. • 5. Intestines were gently replaced into the abdomen and the abdominal wound was stitched closed under sterile conditions. • 1. Rat was allowed to recover from isofluorane anaesthesia. • 2. Test compounds (or vehicle) were administered intravenously via previously implanted jugular catheter. • 3. Immediate intragastric gavage of methylcellulose (2%) labeled with radioactive ^99mTc, T=0. • 1. At t=15 min, animal was euthanized with CO2. • 2. Stomach and 10 cm sections along the small intestine were immediately ligated, cut and placed in tubes for measuring of ^99mTc in gamma counter. • 3. Stomach emptying and small intestinal transit were measured by calculation of the geometric mean. Geometric mean=Σ(% total radioactivity×number of segment)/100 • 1. Model adapted from Kälff et al. (1998), Ann Surg 228:652-63. • 2. Rats (male, Sprague-Dawley, 250-300 g) were implanted with jugular vein catheters to accommodate dosing of test articles. • 3. Rats were fasted O/N, anesthetized with isofluorane and subjected to abdominal surgery. • 4. Following an abdominal incision, the smalt intestine caecum and large intestine were eviscerated for a period of 15 min and kept moist with saline. • 5. […] Radioactivity (^99mTc) in each tissue isolate was measured as a means of measuring the transit of the meal.

Assay [2] has as its system pulsatile GH release in rat. The assay is described as follows: Growth hormone response to test compounds in conscious, freely-moving rats. It is filed as in vivo. How it is done: The following method is employed to determine the temporal pattern and magnitude of the growth hormone (GH) response to test compounds, administered either systemically or centrally. […] Further results are presented in the Examples below.
Adult male Sprague Dawley rats (225-300 g) were purchased from Charles River Canada (St. Constant, Canada) and individually housed on a 12-h light, 12-h dark cycle (lights on, time: 0600-1800) in a temperature (22±1° C.) and humidity-controlled room. Purina rat chow (Ralston Purina Co., St Louis, Mo.) and tap water were freely available. For these studies, chronic intracerebroventricular (icv) and intracardiac venous cannulas were implanted under sodium pentobarbital (50 mg/kg, ip) anesthesia using known techniques. The placement of the icv cannula was verified by both a positive drinking response to icv carbachol (100 ng/10 μl) injection on the day after surgery and methylene blue dye at the time of sacrifice. After surgery, the rats were placed directly in isolation test chambers with food and water freely available until body weight returned to preoperative levels (usually within 5-7 d). During this time, the rats were handled daily to minimize any stress associated with handling on the day of the experiment. On the test day, food was removed 1.5 h before the start of sampling and was returned at the end. Free moving rats were iv injected with either test sample at various levels (3, 30, 300, 1000 μg/kg) or normal saline at two different time points during a 6-h sampling period. The times 1100 and 1300 were chosen because they reflect typical peak and trough periods of GH secretion, as previously documented. The human ghrelin peptide, (5 μg, Phoenix Pharmaceuticals, Inc., Belmont, Calif.) was used as a positive control in the experiments and was diluted in normal saline just before use. To assess the central actions of test compounds on pulsatile GH release, a 10-fold lower dose of the test sample or normal saline, was administered icv at the same time points, 1100 and 1300. Blood samples (0.35 mL) were withdrawn every 15 min over the 6-h sampling period (time: 1000-1600) from all animals. To document the rapidity of the GH response to the test compound, an additional blood sample was obtained 5 min after each injection. […]
Plasma GH concentrations were measured in duplicate by double antibody RIA using materials supplied by the NIDDK Hormone Distribution Program (Bethesda, Md.), The averaged plasma GH values for 5-6 rats per group are reported in terms of the rat GH reference preparation. […]
• 1. […] Blood samples are drawn at defined, 15-minute intervals throughout the test day and growth hormone (GH) measured directly by radioimmunoassay. • 6. […]

Assay [3] concerns the target T1, hGHS-R1a (Homo sapiens, UniProt Q92847).
T1 construct: expressed in transfected cells; host or cells: HEK293
The experiment in a line: hGHS-R1a receptor agonism and desensitization by FLIPR in HEK293 cells. It is filed as cell-based. The method, then: • 1. Studies by FLIPR (Fluorometric Imaging Plate Reader, Molecular Devices). • 2. Assay performed on HEK293 cells expressing hGHS-R1a. • 3. […] A DC50 value is calculated.

T1 sequence (Q92847 whole entry): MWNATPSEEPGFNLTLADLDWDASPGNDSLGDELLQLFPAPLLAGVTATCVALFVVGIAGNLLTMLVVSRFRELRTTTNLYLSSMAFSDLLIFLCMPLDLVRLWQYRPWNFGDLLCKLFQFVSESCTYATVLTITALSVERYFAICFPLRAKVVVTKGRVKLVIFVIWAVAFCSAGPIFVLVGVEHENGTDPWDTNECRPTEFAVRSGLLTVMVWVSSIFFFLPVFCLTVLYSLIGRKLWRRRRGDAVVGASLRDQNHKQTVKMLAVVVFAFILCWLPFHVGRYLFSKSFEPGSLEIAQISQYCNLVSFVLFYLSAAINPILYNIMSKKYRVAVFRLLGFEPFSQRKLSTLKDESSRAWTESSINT

As to `CC1C(=O)NC(Cc2ccc(F)cc2)C(=O)NCCCc2ccccc2O[C@H](C)CNC(C2CC2)C(=O)N1C` (stereo partly drawn) [compound 298], in assay [1] (100 μg/kg (i.v.)), the “promotion of GI transit (geometric center of the meal) vs POI+vehicle” value is recorded as 2.7 ×. Besides, the “effect on postoperative ileus vs POI+vehicle treated rats” value in assay [1] (100 μg/kg i.v., n=5, FIG. 8) was “significantly improves postoperative ileus”. Further, in assay [1] (100 and 300 μg/kg (i.v.)), the “gastric emptying and intestinal transit in POI rats” value is “significantly increased gastric emptying and intestinal transit”. The IGF-1 levels result in assay [2] (1000 μg/kg dose) is recorded as “No changes in IGF-1 levels”. Besides, the “effect on GH release” value in assay [2] (FIG. 9) is listed as “lack of effect on GH release”. Also, the “effect on ghrelin-induced GH release” value in assay [2] (dosed 10 min. prior to ghrelin, FIG. 12B) is “neither inhibits nor augments ghrelin-induced GH release”. Further, in assay [2] (doses up to 1000 μg/kg i.v.), the “pulsatile GH release in comparison to vehicle controls” value is reported as “no significant difference in pulsatile GH release”. For the same compound, the “desensitization potency lower than other ghrelin agonists (ghrelin peptide, capromorelin)” value in assay [3] (FIG. 13C) is reported as about 10 fold. For the same compound, in assay [3] (FLIPR, HEK293), the “DC50 value less potent than the EC50 value” is on record as over 6 fold and the agonist type result was “full agonist”. Further, the EC50 in assay [3] (FLIPR, HEK293 cells expressing hGHS-R1a, FIG. 13A) is 0.005 µM. In addition, the DC50 in assay [3] (read-out: DC50 (pre-treatment concentration that desensitizes the ghrelin EC100 response by 50%), 3 minutes pre-treatment, FLIPR, HEK293, FIG. 13B) amounted to 0.032 µM.
